Each structure is given as a SMILES string. Values after ≈ are worked out from the molar mass of the structure shown. Like-named read-outs stand apart in the source and are kept apart here. Some results are limits rather than exact numbers.

Assay [1] has as its system Staphylococcus aureus S13E. Briefly: MIC, standard agar-dilution assay, Staphylococcus aureus S13E. The class given is cell-based.
The subject of assay [2] is Pasteurella multocida 17E. Briefly: MIC, broth-dilution microtiter test, Pasteurella multocida 17E. The class given is cell-based. Particulars: Pasteurella multocida 17E, bovine isolate, broth-dilution microtiter. An excerpt:
(§1) The MIC's in Table X were obtained using conventional broth-dilution microtiter tests.

For assay [3], the system named is Streptococcus pyogenes C203. Briefly: MIC, standard agar-dilution assay, Streptococcus pyogenes C203. The class given is cell-based.
Assay [4] deals with Staphylococcus aureus X1.1. Briefly: MIC, standard agar-dilution assay, Staphylococcus aureus X1.1. The class given is cell-based.
Assay [5] has as its system Streptococcus pneumoniae Park I. Briefly: microbe, parasite or virus in culture. It counts as cell-based. The following applies: Streptococcus pneumoniae Park I, agar dilution. A general note: In agar dilution the substance is mixed into plates at graded concentrations.
Assay [6] relates to Staphylococcus epidermidis EPI1. Kind of assay: MIC, standard agar-dilution assay, Staphylococcus epidermidis EPI1. The class given is cell-based.
Assay [7] deals with Haemophilus influenzae R252. Kind of assay: MIC, standard agar-dilution assay, Haemophilus influenzae R252. It counts as cell-based. The following applies: Haemophilus influenzae R252, ampicillin-resistant strain.
The test system of assay [8] is Streptococcus bovis 80. Kind of assay: MIC, broth-dilution microtiter test, Streptococcus bovis 80. It counts as cell-based. Particulars: Streptococcus bovis 80, broth-dilution microtiter.
Description: as §1

Assay [9] has as its system Streptococcus Group 9960. Briefly: MIC, standard agar-dilution assay, Streptococcus Group 9960. The class given is cell-based. Particulars: Streptococcus Group 9960, agar dilution.
Assay [10] concerns Staphylococcus epidermidis EPI2. Briefly: MIC, standard agar-dilution assay, Staphylococcus epidermidis EPI2. It counts as cell-based.
Assay [11] has as its system Staphylococcus aureus V41. Kind of assay: MIC, standard agar-dilution assay, Staphylococcus aureus V41. The class given is cell-based.
For assay [12], the system named is Staphylococcus aureus X400. Kind of assay: MIC, standard agar-dilution assay, Staphylococcus aureus X400. It counts as cell-based.
Assay [13] deals with Pasteurella hemolytica 22C. Kind of assay: MIC, broth-dilution microtiter test, Pasteurella hemolytica 22C. The class given is cell-based. The following applies: Pasteurella hemolytica 22C, broth-dilution microtiter.
Description: as §1

Assay [14] has as its system Mycoplasma hyorhinis. Kind of assay: MIC, broth-dilution microtiter test, Mycoplasma hyorhinis. The class given is cell-based.
Description: as §1

The subject of assay [15] is Staphylococcus aureus. Kind of assay: MIC, broth-dilution microtiter test, Staphylococcus aureus. The class given is cell-based.
Description: as §1

Assay [16] has as its system Pasteurella multocida 60A. Briefly: MIC, broth-dilution microtiter test, Pasteurella multocida 60A. Particulars: Pasteurella multocida 60A, avian isolate, broth-dilution microtiter. The class given is cell-based.
Description: as §1

For assay [17], the system named is Streptococcus Group D X66. Kind of assay: MIC, standard agar-dilution assay, Streptococcus Group D X66. Particulars: Streptococcus Group D X66, agar dilution. The class given is cell-based.
For assay [18], the system named is Mycoplasma gallisepticum. Kind of assay: MIC, broth-dilution microtiter test, Mycoplasma gallisepticum. The class given is cell-based.
Description: as §1

In assay [19] the test system is Haemophilus influenzae Holt. Kind of assay: MIC, standard agar-dilution assay, Haemophilus influenzae Holt. The following applies: Haemophilus influenzae Holt, ampicillin-sensitive strain. The class given is cell-based.
The subject of assay [20] is Mycoplasma synoviae. Kind of assay: MIC, broth-dilution microtiter test, Mycoplasma synoviae. It counts as cell-based. Particulars: Mycoplasmopsis synoviae.
Description: as §1

For assay [21], the system named is Streptococcus pyogenes C203. Briefly: In vivo protection of mice experimentally infected with S. pyogenes C203. The following applies: mice, doses given 1 and 4 hours post-infection. The method, then: The C-20 modified derivatives of this invention have shown in vivo antimicrobial activity against experimentally-induced infections in laboratory animals. When two doses of test compound were administered to mice experimentally infected with S. pyogenes C203, the activity observed was measured as an ED50 value [effective dose in mg/kg to protect 50% of the test animals: see Warren Wick, et al., J. Bacteriol. 81, 233-235 (1961)].

The mark [22] stands for this setting: Streptococcus equinus, read-out: MIC.
The mark [23] stands for this setting: Staphylococcus aureus S13E, agar dilution.
Where [24] appears, read: Staphylococcus aureus X1.1, agar dilution.
[25] abbreviates: Staphylococcus epidermidis EPI1, agar dilution.
Setting [26] is: Staphylococcus epidermidis EPI2, agar dilution.
[27] abbreviates: Staphylococcus aureus V41, penicillin-resistant strain, agar dilution.
Setting [28] is: Staphylococcus aureus X400, methicillin-resistant strain, agar dilution.
[29] abbreviates: Mycoplasma hyorhinis, broth-dilution microtiter.
The mark [30] stands for this setting: Mycoplasma gallisepticum, broth-dilution microtiter.

In the case of `CCC1OC(=O)CC(O)C(C)C(OC2OC(C)C(OC3CC(C)(O)C(O)C(C)O3)C(N(C)C)C2O)C(CCI)CC(C)C(=O)C=CC(C)=CC1COC1OC(C)C(O)C(O)C1OC` (centres unmarked) [Compound 52, 20-DH-DO-20-Iodomacrocin], the MIC in assay [1] (Staphylococcus aureus, S13E) was 4 µg/mL (≈ 3.94 µM); in [2] (read-out: MIC) it was greater than 50 µg/mL; in assay [3] (Streptococcus pyogenes, C203), 4 µg/mL (≈ 3.94 µM); in assay [4] (Staphylococcus aureus, X1.1), 2 µg/mL (≈ 1.97 µM); in assay [5] (read-out: MIC), 16 µg/mL (≈ 15.8 µM); in [6] (Staphylococcus epidermidis, EPI1), 2 µg/mL (≈ 1.97 µM). The MIC in [7] (read-out: MIC) is greater than 128 µg/mL; in [8] (setting [22]) it was 50 µg/mL (≈ 49.3 µM); in [9] (GROUP9960, read-out: MIC), 128 µg/mL (≈ 126 µM); in assay [10] (Staphylococcus epidermidis, EPI2), 2 µg/mL (≈ 1.97 µM); in assay [11] (Staphylococcus aureus, V41) it was 2 µg/mL (≈ 1.97 µM); in [12] (Staphylococcus aureus, X400), 8 µg/mL (≈ 7.89 µM). Moreover, the MIC in assay [13] (read-out: MIC) is greater than 50 µg/mL; in assay [14] (Mycoplasma), 50 µg/mL (≈ 49.3 µM); in [15] it was 12.5 µg/mL (≈ 12.3 µM); in [16] (read-out: MIC) it was greater than 50 µg/mL; in [17] (read-out: MIC), 128 µg/mL (≈ 126 µM); in assay [18] (Mycoplasmoides gallisepticum), 3.12 µg/mL (≈ 3.08 µM). Further, in assay [19] (read-out: MIC), the MIC was greater than 128 µg/mL.
As to `CCC1OC(=O)CC(O)C(C)C(OC2OC(C)C(OC3CC(C)(O)C(O)C(C)O3)C(N(C)C)C2O)C(CCOS(=O)(=O)c2ccc(C)cc2)CC(C)C(=O)C=CC(C)=CC1COC1OC(C)C(O)C(O)C1OC` (centres unmarked) [Compound 56, 20-DH-20-O-(p-Toluenesulfonyl)macrocin], the MIC in [2] (read-out: MIC) was greater than 50 µg/mL; in assay [8] (setting [22]), 6.25 µg/mL (≈ 5.91 µM); in [20] it was 12.5 µg/mL (≈ 11.8 µM); in assay [13] (read-out: MIC), greater than 50 µg/mL; in assay [14] (Mycoplasma hyorhinis, broth-dilution microtiter, read-out: MIC), greater than 50 µg/mL; in assay [15], 3.12 µg/mL (≈ 2.95 µM). The figures for the MIC in [16] (read-out: MIC) and in assay [18] (Mycoplasmoides gallisepticum) were greater than 50 µg/mL and 1.56 µg/mL (≈ 1.47 µM), respectively.
Regarding `CCC(=O)OC1C(OC2C(CCN3C(=O)c4ccccc4C3=O)CC(C)C(=O)C=CC(C)=CC(COC3OC(C)C(O)C(OC)C3OC)C(CC)OC(=O)CC(O)C2C)OC(C)C(OC2CC(C)(O)C(O)C(C)O2)C1N(C)C` (centres unmarked) [Compound 62, 20-DH-DO-20-N-Phthalimido-2'-O-propionyltylosin], the MIC in assay [1] (setting [23]) was 1 µg/mL (≈ 0.906 µM); in assay [2], “-- (Not active at 50 mcg/ml, the highest level tested)”; in assay [4] (setting [24]), 1 µg/mL (≈ 0.906 µM); in assay [5], 2 µg/mL (≈ 1.81 µM); in assay [6] (setting [25]) it was 1 µg/mL (≈ 0.906 µM); in [7] (agar dilution), “-- (Not active at 128 mcg/ml, the highest level tested)”. Besides, the MIC in [8] was 12.5 µg/mL (≈ 11.3 µM); in assay [9], “-- (Not active at 128 mcg/ml, the highest level tested)”; in [10] (setting [26]), 1 µg/mL (≈ 0.906 µM); in assay [11] (setting [27]) it was 1 µg/mL (≈ 0.906 µM); in assay [12] (setting [28]), 2 µg/mL (≈ 1.81 µM); in [13], “-- (Not active at 50 mcg/ml, the highest level tested)”. Besides, the MIC is 50 µg/mL (≈ 45.3 µM) in [14] (setting [29]); 3.12 µg/mL (≈ 2.83 µM) in assay [15] (broth-dilution microtiter); “-- (Not active at 50 mcg/ml, the highest level tested)” in assay [16]; “-- (Not active at 128 mcg/ml, the highest level tested)” in assay [17]; 1.56 µg/mL (≈ 1.41 µM) in [18] (setting [30]); “-- (Not active at 128 mcg/ml, the highest level tested)” in assay [19] (agar dilution). Moreover, in assay [21], the “ED50, Oral” value is 66 mg/kg × 2. In addition, the “ED50, Subcutaneous” value in assay [21] was greater than 6.3 mg/kg × 2.
`CCC(=O)OC1C(OC2C(CCCl)CC(C)C(=O)C=CC(C)=CC(COC3OC(C)C(O)C(OC)C3OC)C(CC)OC(=O)CC(O)C2C)OC(C)C(OC2CC(C)(O)C(O)C(C)O2)C1N(C)C` (centres unmarked) [Compound 63, 20-DH-DO-20-Chloro-2'-O-propionyltylosin]: the MIC is 1 µg/mL (≈ 1.01 µM) in [1] (setting [23]); “-- (Not active at 50 mcg/ml, the highest level tested)” in [2]; 0.5 µg/mL (≈ 0.504 µM) in assay [3] (Streptococcus pyogenes C203, agar dilution); 1 µg/mL (≈ 1.01 µM) in [4] (setting [24]); 16 µg/mL (≈ 16.1 µM) in [5]; 1 µg/mL (≈ 1.01 µM) in assay [6] (setting [25]). For the same molecule, the MIC result is “-- (Not active at 128 mcg/ml, the highest level tested)” in assay [7] (agar dilution); 25 µg/mL (≈ 25.2 µM) in assay [8]; “-- (Not active at 128 mcg/ml, the highest level tested)” in assay [9]; 1 µg/mL (≈ 1.01 µM) in assay [10] (setting [26]); 1 µg/mL (≈ 1.01 µM) in [11] (setting [27]); 2 µg/mL (≈ 2.01 µM) in assay [12] (setting [28]). In addition, the MIC entry in [13] was “-- (Not active at 50 mcg/ml, the highest level tested)”; in assay [14] (setting [29]), 50 µg/mL (≈ 50.4 µM); in [15] (broth-dilution microtiter), 6.25 µg/mL (≈ 6.3 µM); in assay [16], “-- (Not active at 50 mcg/ml, the highest level tested)”; in [17], “-- (Not active at 128 mcg/ml, the highest level tested)”; in assay [18] (setting [30]) it was 1.56 µg/mL (≈ 1.57 µM). The MIC entry in assay [19] (agar dilution) is “-- (Not active at 128 mcg/ml, the highest level tested)”. Further, the “ED50, Oral” value in [21] came to 22 mg/kg × 2. Further, in assay [21], the “ED50, Subcutaneous” value is on record as greater than 6.3 mg/kg × 2.

Source of the values: US4443436A, “C-20-Modified macrolide derivatives of the macrolide antibiotics tylosin, desmycosin, macrocin, and lactenocin” (Eli Lilly and Company, priority 1982, dated 1984).
